From PMC3651043 (Biochemistry, 2013) come the findings set out here.

Structures are written as SMILES.

For assay [1], the target named is tKSI (ketosteroid isomerase from Comamonas testosteroni) (Comamonas testosteroni, UniProt P00947, D38N). In words: biochemical.
Assay [2] has as its target tKSI (ketosteroid isomerase from Comamonas testosteroni) (Comamonas testosteroni, UniProt P00947, D38A). In words: intrinsic fluorescence quenching. The class given is binding.
Assay [3] addresses pKSI (ketosteroid isomerase from Pseudomonas putida) (Pseudomonas putida, UniProt P07445). In words: intrinsic fluorescence quenching. It is filed as binding.
Assay [4] concerns the target pKSI (ketosteroid isomerase from Pseudomonas putida) (Pseudomonas putida, UniProt P07445, D40A). In words: intrinsic fluorescence quenching. The class given is binding.
For assay [5], the target named is tKSI (ketosteroid isomerase from Comamonas testosteroni) (Comamonas testosteroni, UniProt P00947). Kind of assay: intrinsic fluorescence quenching. It is filed as binding.
The target in assay [6] is pKSI (ketosteroid isomerase from Pseudomonas putida) (Pseudomonas putida, UniProt P07445, D40N). In words: biochemical.
Chain of pKSI (ketosteroid isomerase from Pseudomonas putida) (Pseudomonas putida, UniProt P07445, D40N) (P07445 whole entry D40N): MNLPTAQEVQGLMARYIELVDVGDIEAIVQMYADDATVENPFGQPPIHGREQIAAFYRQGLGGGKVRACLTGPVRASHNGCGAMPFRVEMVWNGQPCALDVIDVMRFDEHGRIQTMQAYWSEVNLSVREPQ

Chain of tKSI (ketosteroid isomerase from Comamonas testosteroni) (Comamonas testosteroni, UniProt P00947, D38A) (P00947 whole entry D38A): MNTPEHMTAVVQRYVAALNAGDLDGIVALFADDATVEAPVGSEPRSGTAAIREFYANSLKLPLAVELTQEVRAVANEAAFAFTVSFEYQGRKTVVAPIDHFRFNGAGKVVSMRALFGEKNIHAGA
Chain of tKSI (ketosteroid isomerase from Comamonas testosteroni) (Comamonas testosteroni, UniProt P00947, D38N) (P00947 whole entry D38N): as the sequence (P00947 whole entry D38A) above, with A38N counted along it
Chain of pKSI (ketosteroid isomerase from Pseudomonas putida) (Pseudomonas putida, UniProt P07445) (P07445 whole entry): as the sequence (P07445 whole entry D40N) above, with N40D counted along it
Chain of pKSI (ketosteroid isomerase from Pseudomonas putida) (Pseudomonas putida, UniProt P07445, D40A) (P07445 whole entry D40A): as the sequence (P07445 whole entry D40N) above, with N40A counted along it
Chain of tKSI (ketosteroid isomerase from Comamonas testosteroni) (Comamonas testosteroni, UniProt P00947) (P00947 whole entry): as the sequence (P00947 whole entry D38A) above, with A38D counted along it

For `C[C@]12CCC(=O)C=C1CC[C@@H]1[C@@H]2CC[C@]2(C)C(=O)CC[C@@H]12` [4-androstene-3,17-dione], the Kd (in general, the free concentration of one partner at which half of the binding sites on the other are occupied at equilibrium, for simple one-to-one binding) is 15.9 µM in assay [1]; 0.909 µM in assay [2]; 62.5 µM in assay [3]; 0.385 µM in assay [4]; 62.5 µM in assay [5]; 1.33 µM in assay [6].
